Here are results for four compounds from ChEMBL document CHEMBL3045187, “Chemical weed control in seedbed sown onion (Allium cepa L.)” (Crop Prot, 2006).

SMILES strings stand for the structures.

The subject of data set [1] is Malva sylvestris. Nature of the data set: Herbicidal activity against Malva sylvestris assessed as total dry weight at 0.225 kg/ha applied as spray during post-emergence (reference value: 4.1 MT/ha). The data set is classed as functional.
The test system of data set [2] is Cyperus rotundus. Nature of the data set: Herbicidal activity against Cyperus rotundus assessed as total dry weight at 0.225 kg/ha applied as spray during post-emergence (reference value: 4.1 MT/ha). The data set is classed as functional.
Data set [3] concerns Chenopodiastrum murale. The data set can be described thus: Herbicidal activity against Chenopodium murale assessed as total dry weight at 0.225 kg/ha applied as spray during postemergence (reference value: 4.1 MT/ha). Type of data set: functional.
The test system of data set [4] is Cyperus rotundus. The data set can be described thus: Herbicidal activity against Cyperus rotundus assessed as total fresh weight at 0.225 kg/ha applied as spray during post-emergence (reference value: 23.6 MT/ha). The data set is classed as functional.
Data set [5] concerns Malva sylvestris. The data set can be described thus: Herbicidal activity against Malva sylvestris assessed as total fresh weight at 0.225 kg/ha applied as spray during post-emergence (reference value: 23.6 MT/ha). Type of data set: functional.
Data set [6] has as its system Chenopodiastrum murale. The data set can be described thus: Herbicidal activity against Chenopodium murale assessed as total fresh weight at 0.225 kg/ha applied as spray during postemergence (reference value: 23.6 MT/ha). The data set is classed as functional.
Data set [7] concerns Allium cepa. The data set can be described thus: Phytotoxicity in Allium cepa (onion) seedling assessed as total fresh weight at 0.225 kg/ha applied as spray during post-emergence (reference value: 7.71 MT/ha). Type of data set: organism-based. The note with it: in vivo, other.
Data set [8] deals with Cyperus rotundus. Nature of the data set: Herbicidal activity against Cyperus rotundus assessed as total fresh weight at 0.6 kg/ha applied as spray before seed sowing (reference value: 23.6 MT/ha). The data set is classed as functional.
In data set [9] the test system is Malva sylvestris. The data set can be described thus: Herbicidal activity against Malva sylvestris assessed as total fresh weight at 0.6 kg/ha applied as spray before seed sowing (reference value: 23.6 MT/ha). Type of data set: functional.
For data set [10], the system named is Chenopodiastrum murale. Nature of the data set: Herbicidal activity against Chenopodium murale assessed as total fresh weight at 0.6 kg/ha applied as spray before seed sowing (reference value: 23.6 MT/ha). Type of data set: functional.
Data set [11] has as its system Cyperus rotundus. Nature of the data set: Herbicidal activity against Cyperus rotundus assessed as decrease in total dry weight at 0.6 kg/ha applied as spray during post-emergence relative to weed-infested control. Type of data set: functional. More on the design: scale not given: the % may be the effect or the level left.
For data set [12], the system named is Malva sylvestris. Nature of the data set: Herbicidal activity against Malva sylvestris assessed as decrease in total dry weight at 0.6 kg/ha applied as spray during post-emergence relative to weed-infested control. Type of data set: functional. On the set-up: scale not given: the % may be the effect or the level left.
For data set [13], the system named is Chenopodiastrum murale. The data set can be described thus: Herbicidal activity against Chenopodium murale assessed as decrease in total dry weight at 0.6 kg/ha applied as spray during postemergence relative to weed-infested control. Type of data set: functional. On the set-up: scale not given: the % may be the effect or the level left.
The subject of data set [14] is Malva sylvestris. Nature of the data set: Herbicidal activity against Malva sylvestris assessed as total dry weight at 0.6 kg/ha applied as spray before seed sowing (reference value: 4.1 MT/ha). The data set is classed as functional.
Data set [15] relates to Cyperus rotundus. Nature of the data set: Herbicidal activity against Cyperus rotundus assessed as total dry weight at 0.6 kg/ha applied as spray before seed sowing (reference value: 4.1 MT/ha). Type of data set: functional.
The subject of data set [16] is Malva sylvestris. Nature of the data set: Herbicidal activity against Malva sylvestris assessed as total fresh weight at 0.6 kg/ha applied as spray during post-emergence (reference value: 23.6 MT/ha). The data set is classed as functional.
For data set [17], the system named is Cyperus rotundus. The data set can be described thus: Herbicidal activity against Cyperus rotundus assessed as total fresh weight at 0.6 kg/ha applied as spray during post-emergence (reference value: 23.6 MT/ha). Type of data set: functional.
The test system of data set [18] is Chenopodiastrum murale. Nature of the data set: Herbicidal activity against Chenopodium murale assessed as total fresh weight at 0.6 kg/ha applied as spray during postemergence (reference value: 23.6 MT/ha). The data set is classed as functional.
Data set [19] concerns Chenopodiastrum murale. Nature of the data set: Herbicidal activity against Chenopodium murale assessed as total dry weight at 0.6 kg/ha applied as spray before seed sowing (reference value: 4.1 MT/ha). The data set is classed as functional.
Data set [20] has as its system Allium cepa. Nature of the data set: Phytotoxicity in Allium cepa (onion) seedling assessed as total fresh weight at 0.6 kg/ha applied as spray during post-emergence (reference value: 7.71 MT/ha). Type of data set: organism-based. The note with it: in vivo, other.
For data set [21], the system named is Allium cepa. Nature of the data set: Phytotoxicity in Allium cepa (onion) seedling assessed as total fresh weight at 0.6 kg/ha applied as spray before seed sowing (reference value: 7.71 MT/ha). Type of data set: organism-based. The note with it: in vivo, other.
Data set [22] deals with Cyperus rotundus. The data set can be described thus: Herbicidal activity against Cyperus rotundus assessed as decrease in total dry weight at 0.02 kg/ha applied as spray during post-emergence relative to weed-infested control. The data set is classed as functional. On the set-up: scale not given: the % may be the effect or the level left.
The subject of data set [23] is Malva sylvestris. The data set can be described thus: Herbicidal activity against Malva sylvestris assessed as decrease in total dry weight at 0.02 kg/ha applied as spray during post-emergence relative to weed-infested control. The data set is classed as functional. On the set-up: scale not given: the % may be the effect or the level left.
Data set [24] deals with Chenopodiastrum murale. The data set can be described thus: Herbicidal activity against Chenopodium murale assessed as decrease in total dry weight at 0.02 kg/ha applied as spray during postemergence relative to weed-infested control. Type of data set: functional. More on the design: scale not given: the % may be the effect or the level left.
In data set [25] the test system is Malva sylvestris. Nature of the data set: Herbicidal activity against Malva sylvestris assessed as total fresh weight at 0.02 kg/ha applied as spray during post-emergence (reference value: 23.6 MT/ha). Type of data set: functional.
The subject of data set [26] is Cyperus rotundus. The data set can be described thus: Herbicidal activity against Cyperus rotundus assessed as total fresh weight at 0.02 kg/ha applied as spray during post-emergence (reference value: 23.6 MT/ha). The data set is classed as functional.
Data set [27] deals with Chenopodiastrum murale. Nature of the data set: Herbicidal activity against Chenopodium murale assessed as total fresh weight at 0.02 kg/ha applied as spray during postemergence (reference value: 23.6 MT/ha). Type of data set: functional.
The subject of data set [28] is Allium cepa. The data set can be described thus: Phytotoxicity in Allium cepa (onion) seedling assessed as total fresh weight at 0.02 kg/ha applied as spray during postemergence (reference value: 7.71 MT/ha). The data set is classed as organism-based. The note with it: in vivo, other.
The subject of data set [29] is Cyperus rotundus. Nature of the data set: Herbicidal activity against Cyperus rotundus assessed as total fresh weight at 1.5 kg/ha applied as spray before seed sowing (reference value: 23.6 MT/ha). The data set is classed as functional. The note with it: pooled result: one value given for 3 cell lines, strains, targets or settings.
The subject of data set [30] is Cyperus rotundus. The data set can be described thus: Herbicidal activity against Cyperus rotundus assessed as total dry weight at 1.5 kg/ha applied as spray before seed sowing (reference value: 4.1 MT/ha). Type of data set: functional. The settings on record: pooled result: one value given for 3 cell lines, strains, targets or settings.
In data set [31] the test system is Allium cepa. The data set can be described thus: Phytotoxicity in Allium cepa (onion) seedling assessed as total fresh weight at 1.5 kg/ha applied as spray before seed sowing (reference value: 7.71 MT/ha). Type of data set: organism-based. The settings on record: in vivo, other.

As for `C[C@@H](Oc1ccc(Oc2ccc(C(F)(F)F)cn2)cc1)C(=O)O` [FLUAZIFOP-P], the Activity was determined as 2.9 MT/ha in the data set with Malva sylvestris [1]; 2.9 MT/ha in the data set on Cyperus rotundus [2]; 2.9 MT/ha in the data set with Chenopodiastrum murale [3]; 15.6 MT/ha in the data set on Cyperus rotundus [4]; 15.6 MT/ha with Malva sylvestris [5]; 15.6 MT/ha in the data set with Chenopodiastrum murale [6]. Besides, in the data set with Allium cepa [7], the Activity amounted to 9.18 MT/ha.

As for `CCOc1cc(Oc2ccc(C(F)(F)F)cc2Cl)ccc1[N+](=O)[O-]` [OXYFLUORFEN], the Activity turned out to be 15.8 MT/ha in the data set with Cyperus rotundus [8]; 15.8 MT/ha in the data set on Malva sylvestris [9]; 15.8 MT/ha in the data set with Chenopodiastrum murale [10]; 68% in the data set on Cyperus rotundus [11]; 68% in the data set with Malva sylvestris [12]; 68% with Chenopodiastrum murale [13]. Besides, the Activity in the data set on Malva sylvestris [14] is recorded as 2.93 MT/ha; with Cyperus rotundus [15] it was 2.93 MT/ha; with Malva sylvestris [16] it was 7.7 MT/ha; in the data set on Cyperus rotundus [17] it was 7.7 MT/ha; in the data set with Chenopodiastrum murale [18], 7.7 MT/ha; in the data set on Chenopodiastrum murale [19] it was 2.93 MT/ha. Moreover, the Activity is listed as 17.01 MT/ha in the data set on Allium cepa [20] and 8.68 MT/ha in the data set on Allium cepa [21].

`C[n+]1ccc(-c2cc[n+](C)cc2)cc1` [PARAQUAT]: the Activity in the data set with Cyperus rotundus [22] is 60%; in the data set with Malva sylvestris [23], 60%; in the data set on Chenopodiastrum murale [24], 60%; in the data set on Malva sylvestris [25], 8.2 MT/ha; in the data set with Cyperus rotundus [26], 8.2 MT/ha; in the data set on Chenopodiastrum murale [27] it was 8.2 MT/ha. For the same compound, the Activity with Allium cepa [28] is 14.11 MT/ha.

With `CCC(CC)Nc1c([N+](=O)[O-])cc(C)c(C)c1[N+](=O)[O-]` [PENDIMETHALIN], the figures for the Activity in the data set with Cyperus rotundus [29], with Cyperus rotundus [30] and in the data set with Allium cepa [31] were 17.5 MT/ha, 2.9 MT/ha and 7.42 MT/ha, respectively.
